“Also recorded” adds a separate entry of the source.
Test system: rat model of focal cerebral ischemia (tMCAO)
Assay: BrdU cell proliferation in the brain after tMCAO
Type: in vivo
Experimental: Two days before tMCAO rats were trained to lick 5% sucrose from a 1 ml syringe. After behavioral assessment on Day 1 after tMCAO, rats were randomly assigned to 4 groups in a blinded fashion. Groups included sucrose Vehicle, or 45, 68 or 135 mg/kg oxeladin. Oxeladin was prepared in 5% sucrose and provided to rats from the end of a 1 ml syringe. Starting 48 hours after stroke, rats were administered treatments daily from day 3 to day 14. On days 3-14 rats were injected i.p. with 50 mg/kg bromodeoxyuridine (BrdU; Fisher Bioreagents). At the conclusion of the study, rats were euthanized under deep isoflurane anesthesia. Rats were transcardially perfused with cold saline and either decapitated for brain collection and flash freezing of brain tissue or transcardially perfused with 4% formaldehyde for immunohistochemical studies.
Actions of oxeladin on proliferation in the brain. Fourteen days after tMCAO, rats were transcardially perfused with saline and 4% formaldehyde, as described above. Brains were removed and post-fixed for 48 hours in 4% formaldehyde and then moved to phosphate buffer. Brains were blocked and serial […] coronal sections through the subventricular zone (SVZ) and dorsal hippocampus (HP) were made with a cryostat. Sections were affixed to glass slides and stored at −20° C. until processed. Sections were subjected to antigen retrieval with 10 mM sodium citrate (pH 6.0). Slides were immersed in preheated buffer, placed in a commercial vegetable steamer at 99° C. for 15 minutes and allowed to cool before processing. Immunohistochemistry was performed for the detection of BrdU with a monoclonal primary antibody (Cell Signaling Technology #5292S, 1:5000), followed by a biotinylated secondary antibody (Jackson Immuno Research #715066151, 1:400). […] In the striatum and cortex, the percent area containing BrdU positive cells was assessed in wide-field images captured with a 4× objective using a Keyence BZ-X800 as described above. In the dentate gyrus, individual BrdU+ cells were counted by a treatment-blinded observer in 3 sections per rat (n=6/group). In the SVZ, BrdU+ staining was assessed by a treatment-blinded observer using NEUROLUCIDA® software (Microbrightfield) to map positive cells on the ischemic side (n=4-6).

[1] = 135 mg/kg starting 48 hours after tMCAO, 14-15 days after tMCAO, vs vehicle

Question: Which results are given for `CCN(CC)CCOCCOC(=O)C(CC)(CC)c1ccccc1` [Oxeladin]?
Answer: BrdU staining (area of BrdU+ cells) in the cerebral cortex [1]: significantly smaller area; also recorded: significantly reduced; BrdU staining in the striatum [1]: did not alter BrdU staining; BrdU positive cells in the subventricular zone (SVZ), infarcted hemisphere (135 mg/kg, 14-15 days after tMCAO, vs vehicle): no differences in BrdU+ cells between treatment groups; also recorded: did not reveal a significant difference; cell proliferation in the brain or SVZ after tMCAO (overall conclusion): does not enhance cell proliferation
